Patent US20190008837A1, “OPHTHALMIC COMPOSITIONS AND ASSOCIATED METHODS” (University of Utah Research Foundation, priority 2016, published 2019)

Test system: cornea neuron fibers of scratched corneas
Test: Cornea scratch model, cornea neuron regeneration on flatmounts (Example 1)
Format: in vivo, mice
Details: eye drops 3 times per day for 5 days, corneas harvested on the 7th day, beta III tubulin staining
Description: Nine mice were divided into three treatment groups having three mice each. The corneas of each of the mice in each of the groups were scratched. The control group was administered a standard blank (e.g. pacebo) composition. The first treatment group received pergolide. The second treatment group received cabergoline. Each of the eye drops was applied 3 times per day for 5 days. The corneas were harvested on the 7th day. The corneas were then fixed in acetone for 1 hour at room temperature and then blocked in 3% BSA for 1 hour. The cornea flatmounts were stained with primary antibody, anti-beta III tubulin antibody (rabbit polyclonal, ab18207) at 1:200 in 3% BSA blocking buffer overnight at 4° C. After washing 3 times for 10 minutes, each of the cornea flatmounts were incubated with secondary antibody (goat anti rabbit, Invitrogen Alexa Fluor 555) at 1:200 in 3% BSA for 1 hour at room temperature. The flatmounts were again washed 3 times for 10 minutes each. Images of the cornea neuron fibers were taken and analyzed under EVOS microscopy.

## C=CCN1C[C@H](C(=O)N(CCCN(C)C)C(=O)NCC)C[C@@H]2c3cccc4[nH]cc(c34)C[C@H]21 [cabergoline]
  cornea neuron regeneration compared to the blank control group: no neuron regeneration
